Values belong to the compound of their own block, whether it stands above or below them.
How the values were obtained:
[1] = test system: U87MG glioma cell line, proliferating cells; test: Crystal violet cell viability / IC50 assay in proliferating U87MG cells; assay type: cell-based; conditions: Homo sapiens, U-87 MG, read-out: quantity required to eliminate at least 50% of proliferative counterparts
Experimental: (§1) Cell viability was tested by crystal violet staining as reported previously (Feoktistova et al. 2016). Both proliferative and senescent cells from different cell lines were plated at a concentration of 1,2 × 10^4 cells per well in a 96-well plate. After a 24 h incubation period, they were treated with Compound 96558 at decreasing concentrations (with DMSO as the control) and at various time points. Subsequently, cells were washed with phosphate-buffered saline (PBS, Merck) and fixed with paraformaldehyde (Electron Microscopy Science) prepared at 2% in PBS for 15 minutes, followed by a 5 min staining process using a 0.1% crystal violet solution in Milli-Q water. After staining, the excess dye was removed, washed 3 times with water, and air dried. Captured crystal violet was solubilized in 10% acetic acid and incubated on an orbital shaker at room temperature for 10 min. The absorbance was measured using a BioTek microplate reader equipped with Gen5 software.
(§2) Cell viability was evaluated following the previously mentioned protocol of crystal violet staining. The IC50 calculations were performed using GraphPad Prism® software.
To thoroughly explore the senolytic potential of Compound 96558, we employed a different human tumor cell line, specifically the U87MG glioma cell line. […]

[2] = test system: Radiation-Induced senescent A549cells; test: Crystal violet cell viability / IC50 assay in ionizing radiation-induced senescent A549 cells; assay type: cell-based, human; conditions: for concentration showing enhanced efficacy (greater cytotoxic effect on senescent cells than proliferating): ionizing radiation 10 Gy
Experimental: (§3) Navitoclax (ABT-263, Abbvie) was used as a positive control for senolysis. For chemotherapy-induced senescence we used Bleomycin (Mylan Pharmaceuticals) at 20 µM for 5 days. Alternatively, we also used 5 µM Palbociclib (MedChemExpress) for 7 days. Ionizing radiation at a dose of 10 Gy was applied to induce senescence. Doxycycline (Sigma), a stable tetracycline analogue, was used as an inducer for inducible expression systems at 1 µg/mL.
as §1, §2
Subsequently, we aimed to assess the senolytic capability of our Compound using a senescence induction method different from the previous chemotherapy-induced approach. In this regard, we exposed A549 cells to ionizing radiation, confirmed the senescent status (Figure 8B) and conducted a similar assay as described previously.

[3] = test system: A549 Bleomycin-Induced Senescent Cells; test: Crystal violet cell viability / IC50 assay in bleomycin-induced senescent A549 cells; assay type: cell-based, human; conditions: for IC50: Homo sapiens, A549
Experimental: Navitoclax (ABT-263, Abbvie) was used as a positive control for senolysis. For chemotherapy-induced senescence we used Bleomycin (Mylan Pharmaceuticals) at 20 µM for 5 days. Alternatively, we also used 5 µM Palbociclib (MedChemExpress) for 7 days. Ionizing radiation at a dose of 10 Gy was applied to induce senescence. Doxycycline (Sigma), a stable tetracycline analogue, was used as an inducer for inducible expression systems at 1 µg/mL. Cell viability was tested by crystal violet staining as reported previously (Feoktistova et al. 2016). Both proliferative and senescent cells from different cell lines were plated at a concentration of 1,2 × 10^4 cells per well in a 96-well plate. After a 24 h incubation period, they were treated with Compound 96558 at decreasing concentrations (with DMSO as the control) and at various time points. […] After staining, the excess dye was removed, washed 3 times with water, and air dried. […] The absorbance was measured using a BioTek microplate reader equipped with Gen5 software. […] Cell viability was evaluated following the previously mentioned protocol of crystal violet staining. The IC50 calculations were performed using GraphPad Prism® software. First, we sought to validate the senolytic potential of the Candidate Compound within the same cell type and under the same conditions of senescence induction as employed during the high-throughput screening. To achieve this, we used A549 cells in which senescence was induced using bleomycin (20 µM; 5 days). Subsequently, following the confirmation of the senescent status of these cells in comparison to the proliferative control (Figure 8A), a cell viability assay was performed, employing crystal violet staining, as detailed in the Materials and Methods section. After evaluating the senolytic activity of the Candidate Compound at the same concentration used in the screening (Figure 9), we conducted further tests using a range of concentrations, from 100 µM to 0.3125 µM, in A549 tumor cells. These tests were performed both in their non-treated (proliferating) state and after the induction of senescence with Bleomycin. In addition, we also assessed the drug's ability to affect cell viability at different time points (24, 48, and 72 hours) by renewing the Compound every 24 hours.

[4] = test system: A549 proliferative cells; test: Apoptosis assay (Annexin V-FITC/7-AAD flow cytometry) in proliferative A549 cells; assay type: cell-based, human; conditions: 10 µM, 24 h
Experimental: (§4) A549 cells were resuspended into a single-cell suspension and plated at a density of 3 × 10^5 cells per well in six-well plates. After culturing for 24 h, the cells were treated with DMSO (control), the Compound, or a combination of pan-caspase inhibitor Z-VAD-FMK (Santa Cruz Biotech.) and the Compound. Following a 24 h incubation with the drugs, the cells were harvested by centrifugation at 3,000 rpm for 5 minutes and washed twice with PBS. Subsequently, the cells were resuspended in 500 µl of binding buffer. Then, 5 µl of Annexin V-FITC and 5 µl of 7-AAD (Elabscience) were used to detect the effect of Compound 96558 on cell apoptosis. The resulting samples were immediately analyzed by flow cytometry (FACScan, BD Biosciences), using the FITC channel (excitation: 488 nm and emission: 525 nm) and the 7-AAD channel (excitation: 488 nm and emission: 670 nm).
(§5) To investigate the potential mechanism of cell death by which the compound eliminates senescent cells, we analyzed apoptosis induction. For this, we conducted a flow cytometry assay to evaluate Annexin-V staining on bleomycin-induced senescent cells treated or not with our senolytic Candidate.

[5] = test system: senescent A549 cells; test: Apoptosis assay (Annexin V-FITC/7-AAD flow cytometry) in bleomycin-induced senescent A549 cells; assay type: cell-based, human
Experimental: as §4, §5

[6] = test system: A549 tumor cells, non-treated (proliferating) state; test: Crystal violet cell viability / IC50 assay in proliferative A549 cells; assay type: cell-based, human
Experimental: as §1, §2
(§6) First, we sought to validate the senolytic potential of the Candidate Compound within the same cell type and under the same conditions of senescence induction as employed during the high-throughput screening. To achieve this, we used A549 cells in which senescence was induced using bleomycin (20 µM; 5 days). Subsequently, following the confirmation of the senescent status of these cells in comparison to the proliferative control (Figure 8A), a cell viability assay was performed, employing crystal violet staining, as detailed in the Materials and Methods section.
(§7) After evaluating the senolytic activity of the Candidate Compound at the same concentration used in the screening (Figure 9), we conducted further tests using a range of concentrations, from 100 µM to 0.3125 µM, in A549 tumor cells. […] In addition, we also assessed the drug's ability to affect cell viability at different time points (24, 48, and 72 hours) by renewing the Compound every 24 hours.

[7] = test system: U87MG cells induced into senescence with palbociclib; test: Crystal violet cell viability / IC50 assay in palbociclib-induced senescent U87MG cells; assay type: cell-based, human
Experimental: as §3
as §1, with “Captured crystal violet was solubilized in 10% acetic acid and incubated on an orbital shaker at room temperature for 10 min.” left out
Cell viability was evaluated following the previously mentioned protocol of crystal violet staining. […]

[8] = Crystal violet cell viability / IC50 assay in proliferative A549 cells; assay type: cell-based, human; conditions: human, A549 tumor cells, non-treated (proliferating); untreated (proliferative) cells, at the tested concentration
Experimental: as §1, §2, §6, §7

senolytic index, the ratio between the IC50 values on proliferating cells over senescent ones ([3]; A549, bleomycin, 24, 48, 72 hours): increases with time | IC50 ([3]; senescent cells, 24-hour): 3730 nM | IC50 ([3]; senescent cells, 48 hours of treatment): 1830 nM | IC50 ([3]; senescent cells, 72 hours): 1410 nM | IC50 values observed for proliferative cells ([6]; compared with senescent cells, 24, 48 and 72 hours): consistently higher | IC50 ([7]; Homo sapiens, U-87 MG, senescent cells, palbociclib-induced): 1790 nM
SMILES: C#CC(=O)NCCNc1nc(C)nc(C)c1Br [Compound 96558]
IC50 [1]: 29800 nM | concentration showing enhanced efficacy (greater cytotoxic effect on senescent cells than proliferating) ([2]; 24-hour): approximately 12.5 µM | concentration showing enhanced efficacy (greater cytotoxic effect on senescent cells than proliferating) ([2]; 48 hours): 2500 nM | concentration showing enhanced efficacy (greater cytotoxic effect on senescent cells than proliferating) ([2]; 72 hours): 2500 nM | IC50 curves ([2]; senescent versus proliferative counterparts, all examined conditions): lower Compound concentrations are required for the eradication of senescent cells | concentration with effective cytotoxicity in senescent cells with minimal impact on proliferative cells ([3]; 24 hours, bleomycin 20 µM, 5 days): around 12.5 µM | concentration effective for favorable senolytic effect ([3]; 48 hours, Compound renewed every 24 hours): 6.25 µM | most efficient concentration for senolytic effect ([3]; 72 hours, Compound renewed every 24 hours): 3.125 µM | viability ([3]; senescent cells, low concentrations, 24, 48, and 72 hours): efficient elimination of the senescent cells | apoptosis induction [4]: apoptosis was not induced | apoptosis induction (FITC-Annexin V-positive and 7-AAD positive) ([5]; Compound treatment versus DMSO, 24 h): a significant proportion of cells were in late apoptosis | apoptosis induction (FITC-Annexin V and 7-AAD staining) ([5]; combination with pan-caspase inhibitor Z-VAD-FMK): the majority of cells appeared as viable cells | viability ([6]; proliferative cells, low concentrations, 24, 48, and 72 hours): intact viability | senolytic index ([7]; U87MG, IC50 proliferating over senescent): 16.6

SMILES: CC1(C)CCC(c2ccc(Cl)cc2)=C(CN2CCN(c3ccc(C(=O)NS(=O)(=O)c4ccc(N[C@H](CCN5CCOCC5)CSc5ccccc5)c(S(=O)(=O)C(F)(F)F)c4)cc3)CC2)C1 [Navitoclax, reference compound]
viability ([3]; Bleomycin-induced senescent cells, at the tested concentration): significantly affected | viability [8]: ~100%

From patent EP4566610A1, “SENOLYTIC COMPOUNDS” (Universidade de Santiago de Compostela, priority 2023, dated 2025)
